Results on 4 compounds are retold here after article PMC8269116 (Journal of psychopharmacology (Oxford, England), 2019).

Series [1] has as its target T1, DAT (Homo sapiens, UniProt Q01959). Nature of the series: Radioligand binding, [3H]WIN35,428 displacement.
Series [2] concerns the target 5-HT2A receptor (Homo sapiens, UniProt P28223). Nature of the series: Radioligand binding, [3H]ketanserin displacement.
Series [3] has as its target T1, DAT. Nature of the series: [3H]dopamine uptake inhibition in HEK 293 cells overexpressing human DAT. In kind it is cell-based. To be noted: for DAT/SERT ratio: 1/DAT IC50 : 1/SERT IC50, mean and 95% confidence interval.
Series [4] concerns the target SERT (Homo sapiens, UniProt P31645). The experiment in a line: Radioligand binding, [3H]citalopram displacement.
Series [5] deals with T2, NET (Homo sapiens, UniProt P23975). The experiment in a line: Radioligand binding, N-methyl-[3H]nisoxetine displacement.
Series [6] deals with human 5-HT transporter (SERT) (Homo sapiens, UniProt P31645). The experiment in a line: [3H]5-HT uptake inhibition in HEK 293 cells overexpressing human SERT. In kind it is cell-based.
The target of series [7] is T2, NET. The experiment in a line: [3H]norepinephrine uptake inhibition in HEK 293 cells overexpressing human NET. In kind it is cell-based.
Series [8] has as its target dopamine D2 receptors (Homo sapiens, UniProt P14416). Nature of the series: Radioligand binding, [3H]spiperone displacement.
The target in series [9] is mouse TAAR1 (Mus musculus, UniProt Q923Y8). Nature of the series: Radioligand binding, [3H]RO5166017 displacement.
Series [10] addresses rat TAAR1 (Rattus norvegicus, UniProt Q923Y9). Nature of the series: Radioligand binding, [3H]RO5166017 displacement.
For series [11], the target named is T3, α2 adrenergic receptor (α2A) (Homo sapiens, UniProt P08913).
T3 sequence (P08913 1-465): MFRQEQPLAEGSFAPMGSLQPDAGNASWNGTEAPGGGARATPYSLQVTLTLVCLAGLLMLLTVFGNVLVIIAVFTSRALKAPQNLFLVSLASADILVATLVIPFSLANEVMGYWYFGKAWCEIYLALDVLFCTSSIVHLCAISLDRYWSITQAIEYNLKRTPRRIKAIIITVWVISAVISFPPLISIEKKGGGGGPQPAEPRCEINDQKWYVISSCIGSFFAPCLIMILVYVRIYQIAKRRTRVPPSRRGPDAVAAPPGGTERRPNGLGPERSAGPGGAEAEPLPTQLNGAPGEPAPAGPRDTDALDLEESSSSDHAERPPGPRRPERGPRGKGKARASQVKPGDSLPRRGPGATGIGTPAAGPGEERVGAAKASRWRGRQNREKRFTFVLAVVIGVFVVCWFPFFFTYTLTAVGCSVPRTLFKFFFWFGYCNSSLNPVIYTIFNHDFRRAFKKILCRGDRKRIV
The experiment in a line: Radioligand binding, [3H]rauwolscine displacement. To be noted: read-out: α2A Ki; mean±SD, n=3.

Series [12] has as its target T4, 5-HT2C receptor (Homo sapiens, UniProt P28335).
T4 sequence (P28335 33-458): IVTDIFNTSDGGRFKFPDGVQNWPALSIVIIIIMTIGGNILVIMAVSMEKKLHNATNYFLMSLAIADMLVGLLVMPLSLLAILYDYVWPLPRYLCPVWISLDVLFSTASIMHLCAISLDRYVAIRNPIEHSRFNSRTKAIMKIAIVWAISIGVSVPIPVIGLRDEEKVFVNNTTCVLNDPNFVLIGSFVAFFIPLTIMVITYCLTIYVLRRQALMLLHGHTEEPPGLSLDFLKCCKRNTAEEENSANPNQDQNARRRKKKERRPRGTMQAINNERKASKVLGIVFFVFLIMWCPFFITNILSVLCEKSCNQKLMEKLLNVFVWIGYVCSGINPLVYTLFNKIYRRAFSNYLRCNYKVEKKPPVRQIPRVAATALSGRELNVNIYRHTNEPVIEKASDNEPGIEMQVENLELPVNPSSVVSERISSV
Nature of the series: biochemical. The class given is binding. Conditions: read-out: 5-HT2c Ki; mean±SD, n=3.

The target in series [13] is T5, α1 adrenergic receptor (α1A) (Homo sapiens, UniProt P35348).
T5 sequence (P35348 1-466): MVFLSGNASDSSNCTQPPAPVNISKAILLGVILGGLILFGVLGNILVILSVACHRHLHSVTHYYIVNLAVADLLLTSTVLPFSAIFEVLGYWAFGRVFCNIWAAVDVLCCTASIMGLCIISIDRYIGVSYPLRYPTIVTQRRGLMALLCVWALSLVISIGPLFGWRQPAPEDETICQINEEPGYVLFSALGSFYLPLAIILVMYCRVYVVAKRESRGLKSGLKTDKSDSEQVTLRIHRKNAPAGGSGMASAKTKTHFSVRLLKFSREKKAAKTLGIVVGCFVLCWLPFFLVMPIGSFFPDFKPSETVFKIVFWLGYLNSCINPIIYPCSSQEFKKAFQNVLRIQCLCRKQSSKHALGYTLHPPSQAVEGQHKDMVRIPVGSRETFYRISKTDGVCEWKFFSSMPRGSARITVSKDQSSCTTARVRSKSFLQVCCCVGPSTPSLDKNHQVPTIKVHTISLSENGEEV
Nature of the series: Radioligand binding, [3H]prazosin displacement. Conditions: read-out: α1A Ki; mean±SD, n=3.

The conditions of series [14]: rats, subcutaneous injections of 0.5–2 mg/kg MDPV; ref Anizan et al., 2016; cited from earlier work.
For series [15], the target named is T6, 5-HT1A receptor (Homo sapiens, UniProt P08908).
T6 sequence (P08908 1-422): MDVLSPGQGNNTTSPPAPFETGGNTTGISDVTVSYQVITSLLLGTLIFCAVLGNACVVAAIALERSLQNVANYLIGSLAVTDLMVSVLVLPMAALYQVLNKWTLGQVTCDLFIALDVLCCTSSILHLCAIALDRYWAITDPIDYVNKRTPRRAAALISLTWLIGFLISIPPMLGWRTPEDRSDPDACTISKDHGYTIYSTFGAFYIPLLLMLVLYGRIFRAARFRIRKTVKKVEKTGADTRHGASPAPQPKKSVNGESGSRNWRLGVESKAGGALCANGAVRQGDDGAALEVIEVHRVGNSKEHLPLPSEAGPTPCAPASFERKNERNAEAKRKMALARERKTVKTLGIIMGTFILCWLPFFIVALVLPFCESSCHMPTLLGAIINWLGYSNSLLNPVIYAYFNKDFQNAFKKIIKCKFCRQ
The experiment in a line: Radioligand binding, [3H]8-hydroxy-2-. To be noted: read-out: 5-HT1A Ki; mean±SD, n=3.

The conditions of series [16]: after subcutaneous methylone, ref Stefkova et al., 2017, cited from earlier work.
For series [17] the following is noted: rat plasma, ref Elmore et al., 2017, cited from earlier work.
[18] abbreviates: read-out: 5-HT2A Ki, mean±SD, n=3.
Setting [19] is: read-out: SERT Ki, mean±SD, n=3.
[20] abbreviates: read-out: SERT IC50, 5-HT uptake inhibition, mean and 95% confidence interval.
Setting [21] is: read-out: TAAR1mouse Ki, mean±SD, n=3.
[22] abbreviates: read-out: TAAR1rat Ki, mean±SD, n=3.

Molecules are shown by their SMILES. Where “and” joins values, the source holds several entries; their conditions need not be identical. Equal entries are not always repeated. Where two headings read alike, the source gives them in different places. Where only a bound is given, the exact number is not on record here.

Chain of mouse TAAR1 (Q923Y8 whole entry): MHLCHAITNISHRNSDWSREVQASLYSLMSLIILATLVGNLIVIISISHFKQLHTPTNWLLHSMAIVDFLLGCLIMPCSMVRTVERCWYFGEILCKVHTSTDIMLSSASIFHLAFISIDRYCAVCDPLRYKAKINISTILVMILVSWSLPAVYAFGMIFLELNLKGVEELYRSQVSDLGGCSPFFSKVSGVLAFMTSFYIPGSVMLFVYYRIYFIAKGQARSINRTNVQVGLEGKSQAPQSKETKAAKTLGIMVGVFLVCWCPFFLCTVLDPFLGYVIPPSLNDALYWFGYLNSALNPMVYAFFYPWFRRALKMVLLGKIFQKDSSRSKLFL
T2 sequence (P23975 whole entry): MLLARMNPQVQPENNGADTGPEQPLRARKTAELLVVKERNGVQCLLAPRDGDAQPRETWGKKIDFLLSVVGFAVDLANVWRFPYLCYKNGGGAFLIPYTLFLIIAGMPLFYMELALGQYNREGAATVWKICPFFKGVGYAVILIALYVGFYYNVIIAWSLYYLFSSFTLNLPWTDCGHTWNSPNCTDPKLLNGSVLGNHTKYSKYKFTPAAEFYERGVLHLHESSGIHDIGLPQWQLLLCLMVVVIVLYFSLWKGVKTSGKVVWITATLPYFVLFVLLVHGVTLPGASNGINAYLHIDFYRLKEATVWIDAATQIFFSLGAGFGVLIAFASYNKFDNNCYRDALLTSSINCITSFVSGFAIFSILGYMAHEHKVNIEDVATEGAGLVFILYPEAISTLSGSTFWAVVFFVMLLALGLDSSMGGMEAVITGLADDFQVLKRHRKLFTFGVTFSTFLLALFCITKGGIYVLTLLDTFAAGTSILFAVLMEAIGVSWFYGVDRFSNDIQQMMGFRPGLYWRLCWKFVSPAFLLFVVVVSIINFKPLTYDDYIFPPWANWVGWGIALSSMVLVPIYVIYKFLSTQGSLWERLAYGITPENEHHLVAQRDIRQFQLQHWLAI
Chain of SERT (P31645 whole entry): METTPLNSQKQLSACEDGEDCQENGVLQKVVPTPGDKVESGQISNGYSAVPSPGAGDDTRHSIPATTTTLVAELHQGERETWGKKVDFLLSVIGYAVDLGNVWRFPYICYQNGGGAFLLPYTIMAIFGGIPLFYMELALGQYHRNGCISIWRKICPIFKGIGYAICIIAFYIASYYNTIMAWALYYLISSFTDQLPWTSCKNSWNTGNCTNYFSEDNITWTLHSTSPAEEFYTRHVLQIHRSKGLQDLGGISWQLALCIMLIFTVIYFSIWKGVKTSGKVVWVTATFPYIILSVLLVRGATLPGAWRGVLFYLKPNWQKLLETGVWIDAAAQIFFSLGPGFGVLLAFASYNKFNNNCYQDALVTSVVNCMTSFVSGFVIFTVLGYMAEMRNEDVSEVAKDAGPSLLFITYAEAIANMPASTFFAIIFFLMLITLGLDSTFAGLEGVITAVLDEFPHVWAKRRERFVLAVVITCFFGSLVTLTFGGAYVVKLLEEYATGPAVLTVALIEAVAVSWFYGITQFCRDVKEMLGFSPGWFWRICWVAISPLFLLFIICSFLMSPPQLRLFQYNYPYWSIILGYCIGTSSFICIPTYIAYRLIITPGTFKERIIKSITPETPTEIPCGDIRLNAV
Chain of human 5-HT transporter (SERT) (P31645 whole entry): as above
Chain of rat TAAR1 (Q923Y9 whole entry): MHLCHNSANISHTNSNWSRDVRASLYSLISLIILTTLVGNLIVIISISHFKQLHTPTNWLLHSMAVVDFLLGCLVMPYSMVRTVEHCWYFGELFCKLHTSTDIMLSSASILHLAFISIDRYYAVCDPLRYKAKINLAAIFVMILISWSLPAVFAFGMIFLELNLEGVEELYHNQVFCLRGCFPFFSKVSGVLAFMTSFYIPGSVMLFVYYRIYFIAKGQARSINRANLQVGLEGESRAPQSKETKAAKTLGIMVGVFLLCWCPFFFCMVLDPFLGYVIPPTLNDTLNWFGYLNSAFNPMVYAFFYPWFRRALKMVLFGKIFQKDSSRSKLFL
Chain of dopamine D2 receptors (P14416 whole entry): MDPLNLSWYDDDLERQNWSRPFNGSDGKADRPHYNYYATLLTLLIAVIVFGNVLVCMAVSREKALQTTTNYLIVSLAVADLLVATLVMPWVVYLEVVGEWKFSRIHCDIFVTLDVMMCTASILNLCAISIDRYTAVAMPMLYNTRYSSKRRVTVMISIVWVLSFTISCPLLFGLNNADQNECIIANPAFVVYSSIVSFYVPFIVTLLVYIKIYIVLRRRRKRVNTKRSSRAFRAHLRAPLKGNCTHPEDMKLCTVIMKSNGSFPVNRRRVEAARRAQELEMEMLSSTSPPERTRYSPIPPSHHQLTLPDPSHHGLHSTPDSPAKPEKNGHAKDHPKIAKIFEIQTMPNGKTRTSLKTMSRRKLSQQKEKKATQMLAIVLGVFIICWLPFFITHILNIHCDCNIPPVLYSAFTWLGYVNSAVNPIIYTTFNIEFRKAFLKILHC
T1 sequence (Q01959 whole entry): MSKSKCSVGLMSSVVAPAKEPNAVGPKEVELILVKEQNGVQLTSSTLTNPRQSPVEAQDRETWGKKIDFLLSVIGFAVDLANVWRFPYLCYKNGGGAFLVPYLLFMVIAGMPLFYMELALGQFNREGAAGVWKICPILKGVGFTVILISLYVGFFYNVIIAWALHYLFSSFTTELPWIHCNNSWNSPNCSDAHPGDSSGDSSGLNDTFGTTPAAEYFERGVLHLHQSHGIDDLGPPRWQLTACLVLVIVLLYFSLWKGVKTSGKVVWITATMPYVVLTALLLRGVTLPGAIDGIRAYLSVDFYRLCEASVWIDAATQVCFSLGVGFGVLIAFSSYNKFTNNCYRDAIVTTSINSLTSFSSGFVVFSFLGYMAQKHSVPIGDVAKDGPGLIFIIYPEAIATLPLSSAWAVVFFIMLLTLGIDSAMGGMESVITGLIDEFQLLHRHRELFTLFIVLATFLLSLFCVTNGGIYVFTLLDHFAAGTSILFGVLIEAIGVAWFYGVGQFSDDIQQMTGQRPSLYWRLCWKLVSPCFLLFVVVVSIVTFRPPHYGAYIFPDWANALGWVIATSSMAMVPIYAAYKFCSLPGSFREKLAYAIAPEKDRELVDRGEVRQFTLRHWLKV
Chain of 5-HT2A receptor (P28223 whole entry): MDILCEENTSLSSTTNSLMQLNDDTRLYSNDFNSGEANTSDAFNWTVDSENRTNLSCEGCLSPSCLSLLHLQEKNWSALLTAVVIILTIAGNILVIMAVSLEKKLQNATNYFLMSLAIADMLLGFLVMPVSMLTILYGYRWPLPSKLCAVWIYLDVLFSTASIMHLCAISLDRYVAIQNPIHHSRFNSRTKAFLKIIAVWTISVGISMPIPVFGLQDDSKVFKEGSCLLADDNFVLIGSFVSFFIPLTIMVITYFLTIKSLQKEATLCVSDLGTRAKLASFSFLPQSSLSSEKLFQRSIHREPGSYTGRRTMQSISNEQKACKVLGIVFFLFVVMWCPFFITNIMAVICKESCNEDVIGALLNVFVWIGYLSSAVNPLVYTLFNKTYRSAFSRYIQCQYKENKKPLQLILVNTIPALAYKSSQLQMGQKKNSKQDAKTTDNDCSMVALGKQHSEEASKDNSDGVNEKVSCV

The Ki is the dissociation constant of the complex between target and ligand, obtained from inhibition or displacement. What is called IC50 is the concentration at which inhibition is half-maximal. With `CNC(C)Cc1ccc2c(c1)OCO2` (centres unmarked) [MDMA, 3,4-Methylenedioxymethamphetmine, reference compound], the Ki in series [1] is greater than 8.5 µM; in [2], 4.6 ± 1.1 µM; in series [4], greater than 7.5 µM; in series [5] it was greater than 8.7 µM; in series [8], greater than 13 µM; in series [9], 3.1 ± 0.7 µM. Also, the Ki in series [10] worked out at 0.25 ± 0.01 µM. Moreover, the IC50 in series [3] came to 21 µM; in series [6] it was 2.5 µM; in [7], 0.38 µM.

The term Tmax denotes the time at which the peak concentration occurs. Take `CCCC(C(=O)c1ccc2c(c1)OCO2)N1CCCC1` (centres unmarked) [MDPV, 3,4-methylenedioxypyrovalerone, reference compound]: the Ki was 0.01 µM and 0.011 µM in [1] (read-out: DAT Ki, mean±SD, n=3); greater than 12 µM in series [2] (setting [18]); 2.2 ± 0.1 µM in series [4] (setting [19]); greater than 5 µM in series [11]; 2 µM and 2.1 µM in [12]; greater than 9.5 µM in series [13]. For the same compound, the Ki was 0.1 ± 0.01 µM in series [5] (read-out: NET Ki, mean±SD, n=3); 12 ± 2 µM in series [15]; greater than 13 µM in series [8] (read-out: D2 Ki, mean±SD, n=3); greater than 4.7 µM in series [9] (setting [21]); greater than 5 µM in series [10] (setting [22]). Besides, the DAT/SERT ratio in [3] is 226 (143–350). In addition, the Tmax in series [14] was 13 to 19 min. In addition, in series [6] (setting [20]), the IC50 was 12 µM.

Consider `CC(N)C(=O)c1ccc2c(c1)OCO2` (centres unmarked) [MDC, 3,4-methylenedioxycathinone], for which the Ki in [1] (read-out: DAT Ki, mean±SD, n=3) is greater than 8.5 µM; in series [2] (setting [18]) it was greater than 12 µM; in [4] (setting [19]), greater than 7.4 µM; in series [11] it was greater than 4.7 µM; in series [12] it was greater than 5.1 µM; in series [13], greater than 9.5 µM. Also, the Ki in [5] (read-out: NET Ki, mean±SD, n=3) is greater than 8.8 µM; in series [15], greater than 17 µM; in series [8] (read-out: D2 Ki, mean±SD, n=3), greater than 13 µM; in series [9] (setting [21]), 3.5 ± 0.3 µM. Besides, in series [3], the DAT/SERT ratio is 0.38 (0.24–0.59). In addition, the “delay of serum peak relative to methylone” value in series [16] was 30 min. Moreover, in [16] (peak), the “serum level as % of the methylone levels” value was “about 20%”. In addition, the IC50 in series [6] (setting [20]) came out at 13 µM. The “amount in plasma as % of parent compound methylone” value in series [17] (subcutaneous injections of methylone) is reported as 10–13%. The “time at which Cmax was reached” value in series [17] (subcutaneous methylone) is 30 to 45 min.

For the compound `CNC(C)Cc1ccc(O)c(O)c1` (centres unmarked) [HHMA, 3,4-dihydroxymethamphetamine], the Ki in series [1] (read-out: DAT Ki, mean±SD, n=3) is 1.9 µM; in [2] (setting [18]), greater than 12 µM; in series [4] (setting [19]) it was greater than 7.4 µM; in series [11], 1.3 ± 0.1 µM; in series [12], greater than 5.1 µM; in series [13], greater than 9.5 µM. Besides, the Ki in series [5] (read-out: NET Ki, mean±SD, n=3) is 0.94 ± 0.14 µM; in series [15] it was greater than 18 µM; in series [8] (read-out: D2 Ki, mean±SD, n=3) it was greater than 13 µM; in series [9] (setting [21]) it was greater than 4.4 µM; in series [10] (setting [22]) it was 3 ± 0.3 µM. Also, in series [3] (anomalous increase at some concentrations, non-sigmoidal curves), the “increase of dopamine uptake” value was “more than 200%”. Further, the IC50 in [6] (setting [20]) was determined as 65 µM.
